# Experimental data: patent publication US12522594B2, “2-heteroaryl-3-oxo-2,3-dihydropyridazine-4-carboxamides for the treatment of cancer” (Deutsches Krebsforschungszentrum, priority 2017, dated 2026)
# pIC50: −log10 of the molar value.
# Columns and labels:
# Format in all cases: cell-based
# AHR [1] = molecular target: T1, AHR (Homo sapiens, UniProt P35869); experiment: In vitro assay 3: AHR-regulated CYP1A1 expression in human cell line (U937, qPCR, KA stimulation); conditions: U937 cells, 200 uM KA, 6 hours, CYP1A1 expression by qPCR; read-out: Assay 3: Hum CYP1A1 Antagonism IC50
# T1 sequence (P35869 11-848): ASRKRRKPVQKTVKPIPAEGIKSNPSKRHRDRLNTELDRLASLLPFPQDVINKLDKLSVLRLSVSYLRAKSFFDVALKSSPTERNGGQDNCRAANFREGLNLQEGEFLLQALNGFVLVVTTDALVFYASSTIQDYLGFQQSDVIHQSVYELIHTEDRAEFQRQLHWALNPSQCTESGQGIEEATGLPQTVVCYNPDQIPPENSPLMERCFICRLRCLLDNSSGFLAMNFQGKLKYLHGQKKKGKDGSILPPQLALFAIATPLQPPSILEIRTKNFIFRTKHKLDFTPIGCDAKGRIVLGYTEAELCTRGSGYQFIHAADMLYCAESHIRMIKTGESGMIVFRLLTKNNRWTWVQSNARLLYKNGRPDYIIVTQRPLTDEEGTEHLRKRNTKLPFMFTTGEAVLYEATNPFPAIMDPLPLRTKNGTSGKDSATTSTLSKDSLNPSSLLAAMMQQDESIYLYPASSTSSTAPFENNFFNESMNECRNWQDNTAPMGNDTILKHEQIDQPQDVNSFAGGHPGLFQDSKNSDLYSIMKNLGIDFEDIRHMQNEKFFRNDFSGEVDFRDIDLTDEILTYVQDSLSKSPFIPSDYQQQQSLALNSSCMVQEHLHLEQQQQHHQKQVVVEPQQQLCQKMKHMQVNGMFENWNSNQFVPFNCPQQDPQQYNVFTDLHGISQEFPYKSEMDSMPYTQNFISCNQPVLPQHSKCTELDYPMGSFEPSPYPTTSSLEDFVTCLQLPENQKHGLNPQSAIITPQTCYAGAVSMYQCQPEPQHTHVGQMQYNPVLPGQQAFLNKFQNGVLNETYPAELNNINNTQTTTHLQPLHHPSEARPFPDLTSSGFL
# Description: In Vitro Assay 3: AHR-Regulated CYP1A1 Expression in Human Cell Line
# To assess the AHR inhibitory activity of the substances described in this application, the ability thereof to antagonise ligand-induced AHR gene regulation in a dose-dependent manner was quantified. For this purpose, quantitative PCR analysis was used to determine expression of the AHR-regulated gene CYP1A1 in a human monocytic U937 cell line upon stimulation with 200 uM KA in the presence and absence of AHR inhibitor. […] CYP1A1 expression was induced with 200 uM KA (positive control) in the presence or absence of the substances for 6 hours. Human U937 cells were typically incubated with eight different concentrations of the substances (1 nM, 3 nM, 10 nM, 30 nM, 100 nM, 300 nM, 1 uM and 3 uM) and analyzed in duplicate on the same microtitre plate. […] Unstimulated cells were used as the negative control. Taqman probes for human CYP1A1 (Hs01054797_g1) and human HPRT (Hs02800695_m1) were used to analyze fold expression of CYP1A1 of HPRT. Quantitation was performed on a Taqman SDS7900HT.
# AHR [2] = molecular target: T1, AHR; experiment: In vitro assay 1: antagonism in human cell line (transactivation assay, U87 cells prestimulated with kynurenic acid, DRE firefly luciferase reporter); set-up: host or cells: U87 glioblastoma cells, stably transfected with DRE firefly luciferase and renilla reporter constructs; conditions: 150 uM kynurenic acid, 20 hours, read-out: Assay 1: AHR-luc Hum Antagonism IC50
# How it was run: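 U87 glioblastoma cells with endogenous AHR, stably carrying a DRE-driven firefly luciferase reporter and a constitutive renilla reporter. Cells prestimulated with the AHR agonist kynurenic acid before compound addition; data normalized to positive and negative controls.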
# AHR [3] = molecular target: T1, AHR; experiment: In vitro assay 2: agonism in human cell line (transactivation assay, U87 cells, DRE firefly luciferase reporter); set-up: host or cells: U87 glioblastoma cells, stably transfected with DRE firefly luciferase and renilla reporter constructs; conditions: no kynurenic acid, 20 hours, read-out: Assay 2: AHR-luc Hum Agonism IC50
# How it was run: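 U87 glioblastoma cells with endogenous AHR, stably carrying DRE-driven firefly luciferase and constitutive renilla reporters. 300 uM kynurenic acid served as positive activation control; data normalized to positive and negative controls.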
Compound,pIC50 (AHR [1]),pIC50 (AHR [2]),pIC50 (AHR [3])
"O=C(NCC(O)C(F)(F)F)c1cc(-c2ccc(Cl)cc2)nn(-c2cccnc2)c1=O (single isomer, unassigned; (-)) [Example 89, (−)-6-(4-Chlorophenyl)-3-oxo-2-(pyridin-3-yl)-N-(3,3,3-trifluoro-2-hydroxypropyl)-2,3-dihydropyridazine-4-carboxamide]",8.58,8.32,< 4.70
"O=C(NC(CO)C1CC1)c1cc(-c2ccc(Cl)cc2)nn(-c2cccnc2)c1=O (single isomer, unassigned; (-)) [Example 92, (−)-6-(4-Chlorophenyl)-N-(1-cyclopropyl-2-hydroxyethyl)-3-oxo-2-(pyridin-3-yl)-2,3-dihydropyridazine-4-carboxamide]",8.56,7.72,< 4.70
"O=C(NCC(O)C(F)F)c1cc(-c2ccc(C(F)(F)F)cc2)nn(-c2cccnc2)c1=O (single isomer, unassigned; (-)) [Example 230, (−)-N-(3,3-Difluoro-2-hydroxypropyl)-3-oxo-2-(pyridin-3-yl)-6-[4-(trifluoromethyl)phenyl]-2,3-dihydropyridazine-4-carboxamide]",7.98,8.12,< 4.70
"CC(C)(O)C(NC(=O)c1cc(-c2ccc(C(F)(F)F)cc2)nn(-c2cccnc2)c1=O)C(F)(F)F (single isomer, unassigned; (-)) [Example 241, (−)-3-Oxo-2-(pyridin-3-yl)-N-(1,1,1-trifluoro-3-hydroxy-3-methylbutan-2-yl)-6-[4-(trifluoromethyl)phenyl]-2,3-dihydropyridazine-4-carboxamide]",7.44,7.96,< 4.70
"Cc1ccc(-c2cc(C(=O)NCC(O)C(F)(F)F)c(=O)n(-c3cnn(C)c3)n2)cc1 (single isomer, unassigned; enantiomer 1) [Example 11, (−)-6-(4-Methylphenyl)-2-(1-methyl-1H-pyrazol-4-yl)-3-oxo-N-(3,3,3-trifluoro-2-hydroxypropyl)-2,3-dihydropyridazine-4-carboxamide, Enantiomer 1]",9.82,8.34,< 4.70
"Cc1ccc(-c2cc(C(=O)NCC(O)C(F)F)c(=O)n(-c3cnn(C)c3)n2)cc1 (single isomer, unassigned; enantiomer 1) [Example 14, N-(3,3-Difluoro-2-hydroxypropyl)-6-(4-methylphenyl)-2-(1-methyl-1H-pyrazol-4-yl)-3-oxo-2,3-dihydropyridazine-4-carboxamide, Enantiomer 1]",7.59,7.92,< 4.70
"Cn1cc(-n2nc(-c3ccc(Cl)cc3)cc(C(=O)N[C@@H]3COC[C@@H]3O)c2=O)cn1 (single isomer, unassigned; enantiomer 1) [Example 44, 6-(4-Chlorophenyl)-N-[(cis)-4-hydroxytetrahydrofuran-3-yl]-2-(1-methyl-1H-pyrazol-4-yl)-3-oxo-2,3-dihydropyridazine-4-carboxamide, Enantiomer 1]",8.03,7.94,< 4.70
"O=C(N[C@H]1COC[C@H]1O)c1cc(-c2ccc(OC(F)(F)F)cc2)nn(-c2cccnc2)c1=O (single isomer, unassigned; enantiomer 1) [Example 158, N-[(cis)-4-Hydroxytetrahydrofuran-3-yl]-3-oxo-2-(pyridin-3-yl)-6-[4-(trifluoromethoxy)phenyl]-2,3-dihydropyridazine-4-carboxamide, Enantiomer 1]",7.60,7.66,< 4.70
"Cc1ccc(-c2cc(C(=O)NCC(O)C(F)F)c(=O)n(-c3cnn(C)c3)n2)cc1 (single isomer, unassigned; enantiomer 2) [Example 15, N-(3,3-Difluoro-2-hydroxypropyl)-6-(4-methylphenyl)-2-(1-methyl-1H-pyrazol-4-yl)-3-oxo-2,3-dihydropyridazine-4-carboxamide, Enantiomer 2]",6.91,7.58,< 4.70
